Patent US5922580A, “Non-reducing saccharide-forming enzyme, its preparation and uses” (priority 1992, dated 1999)
Blank lines part the entries; values can stand above or below the compound they belong to.

Assays:
[1] = tested on: non-reducing saccharide-forming enzyme; format: biochemical, Rhizobium sp. M-11; conditions: for Formation of novel saccharide from substrate / Percentage of newly-formed saccharide (P I to P V) in reaction product: 20% substrate, 40° C., pH 7.0, 48 hours; for Percentage of remaining substrate in reaction product: non-reducing saccharide-forming enzyme, 48 h, pH 7; for Percentage of newly-formed saccharide (P I to P V) in reaction product: 2 units per g substrate, HPLC
Description: An aqueous solution containing 20% glucose, maltose, maltotriose, maltotetraose, maltopentaose, maltohexaose or maltoheptaose as a substrate was prepared, and mixed with 2 units per g substrate, d.s.b., of the purified enzyme preparation obtained in Experiment 2, and the resultant mixture was subjected to an enzymatic reaction at 40° C. and pH 7.0 for 48 hours. The reaction mixture was desalted and analyzed on high-performance liquid chromatography (HPLC) using "Wakobeads WB-T-330 column", a product of Wako Pure Chemical Industries Ltd., Tokyo, Japan. The HPLC procedure was conducted at an ambient temperature and a flow rate of 0.5 ml/min of water as an eluent, and "RI-8012", a differential refractometer commercialized by Tosho Corporation, Tokyo, Japan, was used for analyzing reaction products.

[2] = Reducing power by Somogyi-Nelson's method expressed as DE; format: physicochemical; conditions: for DE: high-purity saccharide preparations of Experiment 4
Description: The reducing powders of these novel saccharides were determined on the Somogyi-Nelson's method and expressed by DE (dextrose equivalent).

[3] = Maillard reaction with glycine; format: physicochemical; conditions: for Coloration degree (480 nm): 1% glycine, 10% saccharide, 50 mM phosphate buffer pH 7.0, 100° C. for 90 min, absorbance in 1-cm cell; for Coloration degree relative to corresponding material maltooligosaccharide: Maillard reaction, 480 nm
Description: As a control, maltotriose, maltotetraose, maltopentaose, maltohexaose and maltoheptaose as a material for the saccharide preparations were similarly treated as above, and measured their absorbances were measured at a wave length of 480 nm.

β-amylase = β-amylase (Glycine max, UniProt P10538); test: Hydrolysis by β-amylase; format: biochemical; conditions: similarly as with glucoamylase
[4] = tested on: rat intestinal acetone powder; test: Hydrolysis by rat intestinal acetone powder; format: in vitro ADME; conditions: 50 mM maleate buffer pH 6.0, 37° C., 18 hours
Description: (§1) The enzymatic reaction with the α-amylase was as follows: Dissolving 10 mg of a substrate in one ml of 50 mM phosphate buffer (pH 6.9), mixing the resultant solution with one unit of the α-amylase, and incubating the resultant mixture at 37° C. for 18 hours. The enzymatic reaction with the α-glucosidase was conducted under the same conditions as in the case of α-amylase except that 50 mM acetate buffer (pH 4.0) was used as a buffer. The enzymatic reaction with the rat intestinal acetone powder was carried out under the same conditions as in the case of α-amylase except that 50 mM maleate buffer (pH 6.0) was used as a buffer.

[5] = tested on: 7-week old dd-strain mice; test: Acute toxicity test, oral; format: in vivo; conditions: oral, highest possible doses
[6] = target: T1, α-glucosidase specimen derived from rice (Oryza sativa subsp. japonica, UniProt Q653V7); test: Hydrolysis by α-glucosidase; format: biochemical; conditions: 50 mM acetate buffer pH 4.0, 37° C., 18 hours
T1 construct: purchased Sigma Chemical Company, St. Louis, USA; host or cells: rice
Description: as §1

glucoamylase = test: Enzymatic hydrolysis by glucoamylase; format: biochemical; conditions: for Glucose / Trehalose: 50 mg in 1 ml 50 mM acetate buffer pH 4.5, one unit glucoamylase, 40° C., 6 hours, HPLC; for Molecular ratio (Glucose/Trehalose): glucoamylase hydrolysate
Description: Fifty mg aliquots of non-reducing saccharides P I, P II, P III, P IV and P V in Experiment 4 were respectively dissolved in one ml of 50 mM acetate buffer (pH 4.5), admixed with one unit of glucoamylase commercialized by Seikagaku-Kogyo Co., Ltd., Tokyo, Japan, to effect enzymatic hydrolysis at 40° C. for 6 hours. The only saccharides detected in every resultant mixture on HPLC analysis were glucose and trehalose.

[7] = target: T2, α-amylase specimen derived from pig pancreas (Sus scrofa, UniProt P00690); test: Hydrolysis by α-amylase; format: biochemical; design: Saccharide composition of hydrolysate: P I / Saccharide composition of hydrolysate: P II / Saccharide composition of hydrolysate: G3 (maltotriose) / Saccharide composition of hydrolysate: G2 (maltose) / Saccharide composition of hydrolysate: G1 (glucose): unit not given here; conditions: for Hydrolysis by α-amylase: conclusion from Table 6; for Saccharide composition of hydrolysate: G1 (glucose) / Saccharide composition of hydrolysate: G2 (maltose) / Saccharide composition of hydrolysate: G3 (maltotriose) / Saccharide composition of hydrolysate: P I / Saccharide composition of hydrolysate: P II: α-amylase, 10 mg/ml, pH 6.9, 37° C., 18 hours, HPLC
T2 construct: purchased Sigma Chemical Company, St. Louis, USA; host or cells: pig pancreas
T2 sequence (P00690 16-511): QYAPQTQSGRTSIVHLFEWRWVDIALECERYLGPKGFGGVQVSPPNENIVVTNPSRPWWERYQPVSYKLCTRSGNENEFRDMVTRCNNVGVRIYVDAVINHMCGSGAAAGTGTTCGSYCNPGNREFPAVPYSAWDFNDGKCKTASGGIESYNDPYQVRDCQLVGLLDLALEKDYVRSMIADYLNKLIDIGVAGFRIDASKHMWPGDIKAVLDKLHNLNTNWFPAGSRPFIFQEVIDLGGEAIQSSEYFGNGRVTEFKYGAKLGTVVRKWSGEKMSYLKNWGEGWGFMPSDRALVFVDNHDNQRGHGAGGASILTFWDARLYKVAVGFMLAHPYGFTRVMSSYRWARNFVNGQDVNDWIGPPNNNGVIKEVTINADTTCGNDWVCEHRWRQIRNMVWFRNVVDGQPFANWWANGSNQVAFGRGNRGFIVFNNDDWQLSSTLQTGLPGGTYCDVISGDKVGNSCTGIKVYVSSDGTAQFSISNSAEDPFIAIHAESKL
Description: as §1

T1 sequence (Q653V7 34-885): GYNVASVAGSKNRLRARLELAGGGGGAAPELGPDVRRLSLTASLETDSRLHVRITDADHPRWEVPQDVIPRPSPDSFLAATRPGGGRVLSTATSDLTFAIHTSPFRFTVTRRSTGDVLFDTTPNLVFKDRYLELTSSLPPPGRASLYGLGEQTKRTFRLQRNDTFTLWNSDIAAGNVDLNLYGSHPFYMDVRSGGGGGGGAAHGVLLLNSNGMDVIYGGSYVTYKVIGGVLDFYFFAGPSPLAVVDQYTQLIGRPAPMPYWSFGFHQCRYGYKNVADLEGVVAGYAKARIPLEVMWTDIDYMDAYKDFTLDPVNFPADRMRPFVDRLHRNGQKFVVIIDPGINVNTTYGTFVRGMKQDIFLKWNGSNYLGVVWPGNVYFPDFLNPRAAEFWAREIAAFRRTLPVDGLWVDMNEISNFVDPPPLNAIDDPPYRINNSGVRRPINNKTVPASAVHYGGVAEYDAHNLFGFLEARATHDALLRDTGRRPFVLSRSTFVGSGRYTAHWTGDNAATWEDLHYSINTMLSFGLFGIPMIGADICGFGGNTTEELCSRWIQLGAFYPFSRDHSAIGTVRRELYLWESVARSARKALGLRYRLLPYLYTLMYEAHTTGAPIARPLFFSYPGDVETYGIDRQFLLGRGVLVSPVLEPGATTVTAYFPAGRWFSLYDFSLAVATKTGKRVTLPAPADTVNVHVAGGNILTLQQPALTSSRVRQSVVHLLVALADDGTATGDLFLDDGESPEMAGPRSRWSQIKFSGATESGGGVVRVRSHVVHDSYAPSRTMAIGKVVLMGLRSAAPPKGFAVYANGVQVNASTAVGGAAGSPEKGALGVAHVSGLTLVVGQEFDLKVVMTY
β-amylase, sequence (P10538 whole entry, species assumed): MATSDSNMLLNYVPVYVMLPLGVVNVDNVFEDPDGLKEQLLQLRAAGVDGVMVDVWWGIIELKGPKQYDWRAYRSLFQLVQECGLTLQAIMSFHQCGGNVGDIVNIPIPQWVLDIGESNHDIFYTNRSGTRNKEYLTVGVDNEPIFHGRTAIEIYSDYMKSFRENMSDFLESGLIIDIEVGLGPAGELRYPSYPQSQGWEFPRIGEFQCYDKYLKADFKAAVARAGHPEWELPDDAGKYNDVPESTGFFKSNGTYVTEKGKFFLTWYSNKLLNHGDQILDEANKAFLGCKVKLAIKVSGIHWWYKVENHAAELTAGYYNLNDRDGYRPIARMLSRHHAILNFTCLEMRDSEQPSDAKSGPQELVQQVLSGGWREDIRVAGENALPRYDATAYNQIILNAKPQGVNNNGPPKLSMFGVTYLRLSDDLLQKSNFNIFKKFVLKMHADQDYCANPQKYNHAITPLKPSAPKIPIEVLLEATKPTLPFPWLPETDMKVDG

Structure (SMILES): OC[C@H]1O[C@H](O[C@H]2O[C@H](CO)[C@@H](O[C@H]3O[C@H](CO)[C@@H](O[C@H]4O[C@H](CO)[C@@H](O[C@H]5O[C@H](CO)[C@@H](O)[C@H](O)[C@H]5O)[C@H](O)[C@H]4O)[C@H](O)[C@H]3O)[C@H](O)[C@H]2O)[C@H](O)[C@@H](O)[C@@H]1O [Example A-5]
DE of product ([2]; products of Examples A): lower than 0.2

Structure (SMILES): OC[C@H]1OC(O)[C@H](O)[C@@H](O)[C@@H]1O (stereo partly shown) [Glucose]
Formation of novel saccharide from substrate [1]: no novel saccharide was formed
Percentage of remaining substrate in reaction product [1]: 100.0%

Structure (SMILES): OC[C@H]1O[C@H](O[C@H]2[C@H](O)[C@@H](O)[C@@H](O[C@H]3[C@H](O)[C@@H](O)[C@@H](O[C@H]4[C@H](O)[C@@H](O)[C@@H](O[C@H]5[C@H](O)[C@@H](O)[C@@H](O[C@H]6[C@H](O)[C@@H](O)[C@@H](O[C@H]7[C@H](O)[C@@H](O)C(O)O[C@@H]7CO)O[C@@H]6CO)O[C@@H]5CO)O[C@@H]4CO)O[C@@H]3CO)O[C@@H]2CO)[C@H](O)[C@@H](O)[C@@H]1O (stereo partly shown) [Maltoheptaose]
Coloration degree (480 nm) [3]: 0.271
Percentage of newly-formed saccharide (P I to P V) in reaction product [1]: 93.4%
Percentage of remaining substrate in reaction product [1]: 6.7%

Structure (SMILES): OC[C@H]1O[C@H](O[C@H]2O[C@H](CO)[C@@H](O[C@H]3O[C@H](CO)[C@@H](O)[C@H](O)[C@H]3O)[C@H](O)[C@H]2O)[C@H](O)[C@@H](O)[C@@H]1O [P I, α-glucosyl trehalose]
Hydrolysis by β-amylase (β-amylase): not hydrolyzed
DE [2]: 0.83
Saccharide composition of hydrolysate with rat intestinal acetone powder: Glucose [4]: 37.2%
Saccharide composition of hydrolysate with rat intestinal acetone powder: Other saccharides [4]: 0.4%
Saccharide composition of hydrolysate with rat intestinal acetone powder: Trehalose [4]: 62.4%
Death of mice [5]: no mouse died
Saccharide composition of hydrolysate with α-glucosidase: Glucose [6]: 36.5%
Saccharide composition of hydrolysate with α-glucosidase: Other saccharides [6]: 0.5%
Saccharide composition of hydrolysate with α-glucosidase: Trehalose [6]: 63.0%
Glucose (glucoamylase): 36.2%
Trehalose (glucoamylase): 63.8%
Molecular ratio (Glucose/Trehalose) (glucoamylase): 1.07
Coloration degree (480 nm) [3]: 0.027
Coloration degree relative to corresponding material maltooligosaccharide [3]: 3-6%
Hydrolysis by α-amylase [7]: not substantially hydrolyzed
Saccharide composition of hydrolysate: G1 (glucose) [7]: 0
Saccharide composition of hydrolysate: G2 (maltose) [7]: 0.4
Saccharide composition of hydrolysate: G3 (maltotriose) [7]: 2.3
Saccharide composition of hydrolysate: P I [7]: 97.3
Saccharide composition of hydrolysate: P II [7]: 0

Structure (SMILES): OC[C@H]1O[C@H](O[C@H]2O[C@H](CO)[C@@H](O[C@H]3O[C@H](CO)[C@@H](O[C@H]4O[C@H](CO)[C@@H](O)[C@H](O)[C@H]4O)[C@H](O)[C@H]3O)[C@H](O)[C@H]2O)[C@H](O)[C@@H](O)[C@@H]1O [P II, α-maltosyl trehalose]
Hydrolysis by β-amylase (β-amylase): not hydrolyzed
DE [2]: 0.35
Saccharide composition of hydrolysate with rat intestinal acetone powder: Glucose [4]: 52.5%
Saccharide composition of hydrolysate with rat intestinal acetone powder: Other saccharides [4]: 0.4%
Saccharide composition of hydrolysate with rat intestinal acetone powder: Trehalose [4]: 47.1%
Death of mice [5]: no mouse died
Saccharide composition of hydrolysate with α-glucosidase: Glucose [6]: 52.1%
Saccharide composition of hydrolysate with α-glucosidase: Other saccharides [6]: 0.3%
Saccharide composition of hydrolysate with α-glucosidase: Trehalose [6]: 47.6%
Glucose (glucoamylase): 52.0%
Trehalose (glucoamylase): 48.0%
Molecular ratio (Glucose/Trehalose) (glucoamylase): 2.06
Coloration degree (480 nm) [3]: 0.018
Coloration degree relative to corresponding material maltooligosaccharide [3]: 3-6%
Hydrolysis by α-amylase [7]: not substantially hydrolyzed
Saccharide composition of hydrolysate: G1 (glucose) [7]: 0
Saccharide composition of hydrolysate: G2 (maltose) [7]: 0.8
Saccharide composition of hydrolysate: G3 (maltotriose) [7]: 0.4
Saccharide composition of hydrolysate: P I [7]: 0
Saccharide composition of hydrolysate: P II [7]: 98.8

Results, then the compound that gave them:

Formation of novel saccharide from substrate [1]: no novel saccharide was formed
Percentage of remaining substrate in reaction product [1]: 100.0%
Structure (SMILES): OC[C@H]1O[C@H](O[C@H]2[C@H](O)[C@@H](O)C(O)O[C@@H]2CO)[C@H](O)[C@@H](O)[C@@H]1O (mixture of isomers) [Maltose]

Coloration degree (480 nm) [3]: 0.318
Percentage of newly-formed saccharide (P I to P V) in reaction product [1]: 93.5%
Percentage of remaining substrate in reaction product [1]: 6.5%
Structure (SMILES): OC[C@H]1O[C@H](O[C@H]2[C@H](O)[C@@H](O)[C@@H](O[C@H]3[C@H](O)[C@@H](O)[C@@H](O[C@H]4[C@H](O)[C@@H](O)[C@@H](O[C@H]5[C@H](O)[C@@H](O)[C@@H](O[C@H]6[C@H](O)[C@@H](O)C(O)O[C@@H]6CO)O[C@@H]5CO)O[C@@H]4CO)O[C@@H]3CO)O[C@@H]2CO)[C@H](O)[C@@H](O)[C@@H]1O (stereo partly shown) [Maltohexaose]

Coloration degree (480 nm) [3]: 0.369
Percentage of newly-formed saccharide (P I to P V) in reaction product [1]: 92.7%
Percentage of remaining substrate in reaction product [1]: 7.3%
Initial reducing power that diminishes by the enzymatic reaction ([1]; substrate of the present enzyme): about 93%
Structure (SMILES): OC[C@H]1O[C@H](O[C@H]2[C@H](O)[C@@H](O)[C@@H](O[C@H]3[C@H](O)[C@@H](O)[C@@H](O[C@H]4[C@H](O)[C@@H](O)[C@@H](O[C@H]5[C@H](O)[C@@H](O)C(O)O[C@@H]5CO)O[C@@H]4CO)O[C@@H]3CO)O[C@@H]2CO)[C@H](O)[C@@H](O)[C@@H]1O (stereo partly shown) [Maltopentaose]

Coloration degree (480 nm) [3]: 0.475
Percentage of newly-formed saccharide (P I to P V) in reaction product [1]: 85.6%
Percentage of remaining substrate in reaction product [1]: 14.4%
Structure (SMILES): OC[C@H]1O[C@H](O[C@H]2[C@H](O)[C@@H](O)[C@@H](O[C@H]3[C@H](O)[C@@H](O)[C@@H](O[C@H]4[C@H](O)[C@@H](O)C(O)O[C@@H]4CO)O[C@@H]3CO)O[C@@H]2CO)[C@H](O)[C@@H](O)[C@@H]1O (stereo partly shown) [Maltotetraose]

Coloration degree (480 nm) [3]: 0.623
Percentage of newly-formed saccharide (P I to P V) in reaction product [1]: 35.0%
Percentage of remaining substrate in reaction product [1]: 65.0%
Structure (SMILES): OC[C@H]1O[C@H](O[C@H]2[C@H](O)[C@@H](O)[C@@H](O[C@H]3[C@H](O)[C@@H](O)C(O)O[C@@H]3CO)O[C@@H]2CO)[C@H](O)[C@@H](O)[C@@H]1O (stereo partly shown) [Maltotriose]
